For ten molecules, Hemolysis, IC50 and GI50 results are on record in patent US8895695B2, “Template-fixed beta-hairpin peptidomimetics with CXCR4 antagonizing activity” (priority 2003, dated 2014).

SMILES strings stand for the structures. Bridge positions count the residues as written; N and C are the ends. Square brackets hold non-standard residues; d marks the D form. Peptide text beside a SMILES is read from it. 2Nal = N[C@@H](Cc1ccc2ccccc2c1)C(=O)O; Cit = NC(=O)NCCC[C@H](N)C(=O)O; Dab = NCC[C@H](N)C(=O)O

Data set [1] concerns human red blood cells (hRBC). Briefly: Hemolysis. The format is cell-based. In outline:
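Washed fresh human erythrocytes (20% v/v, about 0.9×10^9 cells/ml final) incubated with peptide at 100 μM for 1 h at 37° C. Supernatant diluted 20-fold and OD540 read. Percent hemolysis relative to 0.1% Triton X-100 in H2O (100%), with PBS alone as 0%.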

A further data set deals with CXCR4 (Homo sapiens, UniProt P61073). Briefly: Ca2+-assay method 2 (Flexstation, SDF-1 induced calcium mobilization). Also noted: expressed in transfected cells; host or cells: mouse pre-B cell line 300-19. It is filed as cell-based. To be noted: method 2 (Ex. 54-160), mouse pre-B cell line 300-19 with human CXCR4, 10 nM SDF-1; read-out: IC50 (nM) Ca^2+ assay.
Another data set is described as follows: in vitro. To be noted: human.
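Throughout, for GI50: MTT reduction read as absorbance at 595 nm, blank-corrected and expressed as percent growth relative to the time-zero cell reading, triplicate wells per concentration.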

Chain of CXCR4 (P61073 whole entry): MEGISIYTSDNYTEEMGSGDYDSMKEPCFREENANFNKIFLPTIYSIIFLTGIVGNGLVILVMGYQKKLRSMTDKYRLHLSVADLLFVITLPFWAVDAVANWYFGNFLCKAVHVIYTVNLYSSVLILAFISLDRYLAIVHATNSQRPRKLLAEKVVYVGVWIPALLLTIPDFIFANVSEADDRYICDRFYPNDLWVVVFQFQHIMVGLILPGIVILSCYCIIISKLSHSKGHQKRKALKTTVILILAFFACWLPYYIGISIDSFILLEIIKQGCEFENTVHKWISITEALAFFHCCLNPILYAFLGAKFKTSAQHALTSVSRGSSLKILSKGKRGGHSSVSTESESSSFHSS
Protocol for in vitro: Each peptide concentration was assayed in triplicate. […] Wells were then washed once with PBS and subsequently 100 μl MTT reagent (0.5 mg/mL in medium RPMI1640 and, respectively, DMEM) was added to the wells. This was incubated at 37° C. for 2 hours and subsequently the medium was aspirated and 100 μl isopropanol was added to each well. […] For each concentration averages were calculated from triplicates. The percentage of growth was calculated as follows: (OD595peptide-OD595Tz-OD595Empty well)/(OD595Tz-OD595Empty well)×100% and was plotted for each peptide concentration.
‘CCR5’ cells were cultured in DMEM medium with 4500 mg/ml glucose, 10% fetal bovine serum (FBS), supplemented with 50 U/ml Penicillin and 50 μg/ml Streptomycin (Pen/Strept.). Hut/4-3 cells were maintained in RPMI medium, 10% FBS, supplemented with Pen/Strept. and 10 mM HEPES. HELA cells and CCRF-CEM cells were maintained in RPMI1640 plus 5% FBS, Pen/Strept and 2 mM L-Glutamine. Cos-7 cells were grown in DMEM medium with 4500 mg/ml glucose supplemented with 10% FCS, Pen/Strept. and 2 mM L-Glutamine. All cell lines were grown at 37° C. at 5% CO2.

For the molecule `N=C(N)NCCC[C@@H]1NC(=O)[C@@H]2CSSC[C@H](NC(=O)[C@H](Cc3ccc4ccccc4c3)NC(=O)[C@H](CCCNC(=N)N)NC(=O)[C@H](CCCNC(=N)N)NC(=O)[C@H]3CCCN3C(=O)CNC1=O)C(=O)N[C@@H](Cc1ccc(O)cc1)C(=O)N[C@@H](CCCNC(N)=O)C(=O)N[C@@H](CCC(=O)O)C(=O)N1CCC[C@@H]1C(=O)N1CCC[C@H]1C(=O)N[C@@H](Cc1ccc(O)cc1)C(=O)N[C@@H](CCCNC(=N)N)C(=O)N[C@@H](CCCNC(N)=O)C(=O)N2` [Ex. 103] (cyclo(YR[Cit]CRG[dP]RR[2Nal]CY[Cit]E[dP]P); disulfide 4-11), the Hemolysis at 100 μM in data set [1] is 0.2%. Besides, at CXCR4, the IC50 is 18.3 nM. Further, growth in the data set “in vitro” was halved (GI50 at 48 h) at 42 µM.

Turning to `C[C@@H](O)[C@@H]1NC(=O)[C@H](CCCNC(=N)N)NC(=O)[C@H](Cc2ccc(O)cc2)NC(=O)[C@@H]2CCCN2C(=O)[C@H]2CCCN2C(=O)[C@H](CCCCN)NC(=O)[C@H](CCC(N)=O)NC(=O)[C@H](Cc2ccc(O)cc2)NC(=O)[C@@H]2CSSC[C@H](NC1=O)C(=O)N[C@@H](CCCNC(=N)N)C(=O)NCC(=O)N1CCC[C@@H]1C(=O)N[C@@H](CCN)C(=O)N[C@@H](CCCNC(=N)N)C(=O)N[C@@H](Cc1ccc3ccccc3c1)C(=O)N2` [Ex. 104] (cyclo(YRTCRG[dP][Dab]R[2Nal]CYQK[dP]P); disulfide 4-11), the Hemolysis at 100 μM in data set [1] was determined as 0%. Besides, on CXCR4, the IC50 was 7.4 nM. Moreover, the concentration for 50% growth inhibition (GI50) at 48 h in the data set “in vitro” was 71 µM.

With `N=C(N)NCCC[C@@H]1NC(=O)[C@@H]2CSSC[C@H](NC(=O)[C@H](Cc3c[nH]c4ccccc34)NC(=O)[C@H](CCCNC(=N)N)NC(=O)[C@H](CCCNC(=N)N)NC(=O)[C@H]3CCCN3C(=O)CNC1=O)C(=O)N[C@@H](Cc1ccc(O)cc1)C(=O)N[C@@H](CCCNC(N)=O)C(=O)N[C@@H](CCCCN)C(=O)N1CCC[C@@H]1C(=O)N1CCC[C@H]1C(=O)N[C@@H](Cc1ccc(O)cc1)C(=O)N[C@@H](Cc1c[nH]cn1)C(=O)N[C@@H](CCCNC(N)=O)C(=O)N2` [Ex. 105] (cyclo(YH[Cit]CRG[dP]RRWCY[Cit]K[dP]P); disulfide 4-11), the Hemolysis at 100 μM in data set [1] turned out to be 0%. Besides, the 50% inhibitory concentration (IC50) on CXCR4 was 0.62 nM. Besides, in “in vitro”, halving of growth (GI50 at 48 h) required 49 µM.

`N=C(N)NCCC[C@@H]1NC(=O)[C@@H]2CSSC[C@H](NC(=O)[C@H](Cc3c[nH]c4ccccc34)NC(=O)[C@H](CCCNC(=N)N)NC(=O)[C@H](CCCNC(=N)N)NC(=O)[C@H]3CCCN3C(=O)CNC1=O)C(=O)N[C@@H](Cc1ccc(O)cc1)C(=O)N[C@@H](CCCNC(N)=O)C(=O)N[C@@H](CCCCN)C(=O)N1CCC[C@@H]1C(=O)N1CCC[C@H]1C(=O)N[C@@H](Cc1ccc(O)cc1)C(=O)N[C@@H](CCCCN)C(=O)N[C@@H](CCCNC(N)=O)C(=O)N2` [Ex. 106] (cyclo(YK[Cit]CRG[dP]RRWCY[Cit]K[dP]P); disulfide 4-11) had a Hemolysis at 100 μM in data set [1] of 0%. Also, the concentration for half-maximal inhibition (IC50) at CXCR4 turned out to be 3.1 nM. In “in vitro”, the concentration for 50% growth inhibition (GI50) at 48 h came to 83 µM.

`N=C(N)NCCC[C@@H]1NC(=O)[C@@H]2CSSC[C@H](NC(=O)[C@H](Cc3c[nH]c4ccccc34)NC(=O)[C@H](CCCNC(=N)N)NC(=O)[C@H](CCCNC(=N)N)NC(=O)[C@H]3CCCN3C(=O)CNC1=O)C(=O)N[C@@H](Cc1ccc(O)cc1)C(=O)N[C@@H](CCCNC(N)=O)C(=O)N[C@@H](CCCCN)C(=O)N1CCC[C@@H]1C(=O)N1CCC[C@H]1C(=O)N[C@@H](Cc1ccccc1)C(=O)N[C@@H](CCCNC(=N)N)C(=O)N[C@@H](CCCNC(N)=O)C(=O)N2` [Ex. 107] (cyclo(FR[Cit]CRG[dP]RRWCY[Cit]K[dP]P); disulfide 4-11) returned a Hemolysis at 100 μM in data set [1] of 0.4%. Moreover, the IC50 on CXCR4 stood at 3.8 nM. Further, in “in vitro”, the GI50 at 48 h is 50 µM.

The molecule `N=C(N)NCCC[C@@H]1NC(=O)[C@@H]2CSSC[C@H](NC(=O)[C@H](Cc3c[nH]c4ccccc34)NC(=O)[C@H](CCCNC(=N)N)NC(=O)[C@H](CCCNC(=N)N)NC(=O)[C@H]3CCCN3C(=O)CNC1=O)C(=O)N[C@@H](Cc1ccc(O)cc1)C(=O)N[C@@H](CCC(N)=O)C(=O)N[C@@H](CCCCN)C(=O)N1CCC[C@@H]1C(=O)N1CCC[C@H]1C(=O)N[C@@H](Cc1ccc(O)cc1)C(=O)N[C@@H](CCCNC(=N)N)C(=O)N[C@@H](CCCNC(N)=O)C(=O)N2` [Ex. 108] (cyclo(YR[Cit]CRG[dP]RRWCYQK[dP]P); disulfide 4-11) displayed a Hemolysis at 100 μM in data set [1] of 0%. Further, the IC50 on CXCR4 is 4.6 nM. This molecule also came in with a concentration for 50% growth inhibition (GI50) at 48 h in “in vitro” of 70 µM.

In data set [1], `N=C(N)NCCC[C@@H]1NC(=O)[C@@H]2CSSC[C@H](NC(=O)[C@H](Cc3c[nH]c4ccccc34)NC(=O)[C@H](CCCNC(=N)N)NC(=O)[C@H](CCN)NC(=O)[C@H]3CCCN3C(=O)CNC1=O)C(=O)N[C@@H](Cc1ccc(O)cc1)C(=O)N[C@@H](CCC(N)=O)C(=O)N[C@@H](CCCCN)C(=O)N1CCC[C@@H]1C(=O)N1CCC[C@H]1C(=O)N[C@@H](Cc1ccc(O)cc1)C(=O)N[C@@H](CCCNC(=N)N)C(=O)N[C@@H](CCCNC(N)=O)C(=O)N2` [Ex. 109] (cyclo(YR[Cit]CRG[dP][Dab]RWCYQK[dP]P); disulfide 4-11) yielded a Hemolysis at 100 μM of 0%. Besides, on CXCR4, the IC50 turned out to be 3 nM. The GI50 at 48 h in the data set “in vitro” stood at 65 µM.

Take `N=C(N)NCCC[C@@H]1NC(=O)[C@@H]2CSSC[C@H](NC(=O)[C@H](Cc3ccc(O)cc3)NC(=O)[C@H](CCCNC(=N)N)NC(=O)[C@H](CCCNC(=N)N)NC(=O)[C@H]3CCCN3C(=O)CNC1=O)C(=O)N[C@@H](Cc1ccc(O)cc1)C(=O)N[C@@H](CCCNC(N)=O)C(=O)N[C@@H](CCCCN)C(=O)N1CCC[C@@H]1C(=O)N1CCC[C@H]1C(=O)N[C@@H](Cc1ccc(O)cc1)C(=O)N[C@@H](CCCNC(=N)N)C(=O)N[C@@H](CCCNC(N)=O)C(=O)N2` [Ex. 112] (cyclo(YR[Cit]CRG[dP]RRYCY[Cit]K[dP]P); disulfide 4-11): in data set [1], the Hemolysis at 100 μM came out at 0%. Also, the IC50 at CXCR4 was 7.8 nM. In the data set “in vitro”, the GI50 at 48 h was 76 µM.

`N=C(N)NCCC[C@@H]1NC(=O)[C@@H]2CSSC[C@H](NC(=O)[C@H](Cc3ccc(O)cc3)NC(=O)[C@H](CCCNC(=N)N)NC(=O)[C@H](CCCNC(=N)N)NC(=O)[C@H]3CCCN3C(=O)CNC1=O)C(=O)N[C@@H](CCCNC(N)=O)C(=O)N[C@@H](Cc1ccc(O)cc1)C(=O)N[C@@H](CCCCN)C(=O)N1CCC[C@@H]1C(=O)N1CCC[C@H]1C(=O)N[C@@H](Cc1ccc(O)cc1)C(=O)N[C@@H](CCCNC(=N)N)C(=O)N[C@@H](CCCNC(N)=O)C(=O)N2` [Ex. 113] (cyclo(YR[Cit]CRG[dP]RRYC[Cit]YK[dP]P); disulfide 4-11) gave a Hemolysis at 100 μM in data set [1] of 0%. The concentration for half-maximal inhibition (IC50) on CXCR4 came to 0.62 nM. The molecule further yielded a concentration for 50% growth inhibition (GI50) at 48 h in “in vitro” of 45 µM.

`N=C(N)NCCC[C@@H]1NC(=O)CNC(=O)[C@@H]2CCCN2C(=O)[C@H]2CCCN2C(=O)[C@H](CCCCN)NC(=O)[C@H](CCCNC(N)=O)NC(=O)[C@H](Cc2ccc(O)cc2)NC(=O)[C@@H]2CSSC[C@H](NC(=O)[C@H](CCCNC(N)=O)NC1=O)C(=O)N[C@@H](CCCNC(=N)N)C(=O)NCC(=O)N1CCC[C@@H]1C(=O)N[C@@H](CCCNC(=N)N)C(=O)N[C@@H](CCCNC(=N)N)C(=O)N[C@@H](Cc1ccc3ccccc3c1)C(=O)N2` [Ex. 114] (cyclo(GR[Cit]CRG[dP]RR[2Nal]CY[Cit]K[dP]P); disulfide 4-11) returned a Hemolysis at 100 μM in data set [1] of 0%. For the same molecule, the IC50 at CXCR4 was 1.3 nM. The same molecule had a GI50 at 48 h in “in vitro” of 67 µM.
